Reference: PubChem BioAssay (NCI)
Values joined by “and” are separate entries in the source; they are usually repeats but may differ in a detail not shown here. Equal values may be shown once.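 These data come from cells grown in 96-well plates and exposed to compound for 48 hours at five concentrations. GI50 = concentration required for 50% inhibition of growth. TGI: total growth inhibition.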

Assays:
Experiment in all cases: inhibition of tumour cell growth, NCI panel, 48 h
NCI-H23 lung = test system: NCI-H23 lung
A498 renal = test system: A498 renal
OVCAR-3 ovarian = test system: OVCAR-3 ovarian
UACC-62 melanoma = test system: UACC-62 melanoma
M14 melanoma = test system: M14 melanoma
IGROV1 ovarian = test system: IGROV1 ovarian
NCI-H460 lung = test system: NCI-H460 lung
HT29 colon = test system: HT29 colon
SK-MEL-2 melanoma = test system: SK-MEL-2 melanoma
UACC-257 melanoma = test system: UACC-257 melanoma

Compound | GI50 (NCI-H23 lung) | TGI (NCI-H23 lung) | GI50 (A498 renal) | TGI (A498 renal) | GI50 (OVCAR-3 ovarian) | TGI (OVCAR-3 ovarian) | GI50 (UACC-62 melanoma) | TGI (UACC-62 melanoma) | GI50 (M14 melanoma) | TGI (M14 melanoma) | GI50 (IGROV1 ovarian) | TGI (IGROV1 ovarian) | GI50 (NCI-H460 lung) | TGI (NCI-H460 lung) | GI50 (HT29 colon) | TGI (HT29 colon) | GI50 (SK-MEL-2 melanoma) | TGI (SK-MEL-2 melanoma) | GI50 (UACC-257 melanoma) | TGI (UACC-257 melanoma)
CN(C)c1ccc(N=Nc2c([O-])ccc3ccccc23)cc1.[C-]#[O+].[C-]#[O+].[Ir] | 19.4 µM | 54.9 µM | > 100 µM | > 100 µM | 20.7 µM | 45.6 µM | 21.5 µM | 55.6 µM | 21.9 µM | 46.6 µM | 17.9 µM | 52.7 µM | > 100 µM | > 100 µM | 28.5 µM | > 73.1 µM | 23.8 µM | 48.2 µM | 5.71 µM | 36 µM
CCOC(=O)N1C2C=C(C)C(C3C(C)C(=O)N31)N(C(=O)c1ccccc1)O2 (stereo unspecified) | – | > 100 µM | – | > 100 µM | – | > 100 µM | – | > 100 µM | – | > 100 µM | – | > 100 µM | – | > 100 µM | – | > 100 µM | – | > 100 µM | – | > 100 µM
CCc1c[nH]c2ncnc(N3CC[C@@](N)(CNC(=O)c4ccc(F)cc4F)C3)c12 | 26.4 µM | > 100 µM | 16.4 µM | 53.4 µM | 69.1 µM | > 100 µM | 33 µM | > 100 µM | 54.9 µM | > 100 µM | 20.1 µM | > 94.9 µM | 35 µM | > 100 µM | 62 µM | > 100 µM | 35.5 µM | > 100 µM | 34.5 µM | > 100 µM
COc1cc2cc(Oc3ccc(NC(=O)c4ccc(Cl)c(C(F)(F)F)c4)cc3)c(C)nc2cc1OC | 9.73 µM | > 100 µM | 2.42 µM | 86.3 µM | 7.94 µM | 54 µM | 18.2 µM | > 100 µM | 9.55 µM | > 100 µM | 35.5 µM | > 100 µM | 11.5 µM | > 100 µM | 10.3 µM | > 100 µM | 18.3 µM | 51.1 µM | 18.2 µM | 97.5 µM
CN(C)C(=O)C1CCC(=C2C(=O)OC(C)(C)OC2=O)N1C (stereo unspecified) | – | > 100 µM | – | > 100 µM | – | > 100 µM | – | > 100 µM | – | > 100 µM | – | > 100 µM | – | > 100 µM | – | > 100 µM | – | > 100 µM | – | > 100 µM
COC(=O)C(=O)C(C(=O)C=C(C)C)C(=O)C(=O)Nc1cccc(C(C)=O)c1 (stereo unspecified) | – | > 100 µM | – | > 100 µM | – | > 100 µM | – | > 100 µM | – | > 100 µM | – | > 100 µM | – | > 100 µM | – | > 100 µM | – | > 100 µM | – | > 100 µM
O=c1[nH]cc(OCC(F)(F)F)c(=O)[nH]1 | – | > 100 µM | – | > 100 µM | – | > 100 µM | – | > 100 µM | – | > 100 µM | – | > 100 µM | – | > 100 µM | – | > 100 µM | – | > 100 µM | – | > 100 µM
CC(C)=CC(=O)CC(=O)C(=O)Nc1ccc(Cl)c(Cl)c1 | – | > 100 µM | – | > 100 µM | – | > 100 µM | – | > 100 µM | – | > 100 µM | – | > 100 µM | – | > 100 µM | – | > 100 µM | – | > 100 µM | – | > 100 µM
CCCCCc1c(C)[nH]c(/C=C2\N=C(c3ccc[nH]3)C=C2Oc2ccc(Cl)cc2)c1C | 0.16 µM and 0.0739 µM | 3.25 µM and 2.62 µM | 0.134 µM and 0.033 µM | 3.33 µM and 0.609 µM | 0.107 µM and 0.0342 µM | 0.516 µM and 0.45 µM | 0.0418 µM and 0.0299 µM | 0.163 µM and 0.0884 µM | 0.0789 µM and 0.0203 µM | – | 0.204 µM and 0.129 µM | 50.9 µM | 0.0545 µM and 0.024 µM | 12 µM | 0.0402 µM and 0.028 µM | 18.3 µM | 0.0578 µM and 0.0293 µM | 0.23 µM and 0.108 µM | 0.28 µM and 0.0706 µM | 3 µM and 2.78 µM
CC(C)OC(=O)c1ccc2[nH]c(O)c(C(=Nc3ccc(N(C)C(=O)CN4CCN(C)CC4)cc3)c3ccccc3)c2c1 | 0.583 µM | 2.42 µM | 0.188 µM | 1 µM | 0.55 µM | 2.02 µM | 1.32 µM | 3.01 µM | 0.451 µM | 1.9 µM | 0.0764 µM | 1.24 µM | 0.448 µM | 1.89 µM | 0.28 µM | 3.83 µM | 0.898 µM | 2.72 µM | 1.54 µM | 3.57 µM
CSc1nc(-c2ccccc2)c2c(n1)-c1ccccc1CC2 | – | > 100 µM | – | > 100 µM | – | > 100 µM | – | > 100 µM | – | > 100 µM | – | > 100 µM | – | > 100 µM | – | > 100 µM | – | > 100 µM | – | > 100 µM
COc1ccc2c(c1)C(=O)c1c-2n(CCCN2CCOCC2)c(=O)c2ccccc12 | 2.94 µM | 10.1 µM | 1.87 µM | 5.48 µM | 2.94 µM | 12.2 µM | 1.76 µM | 5.87 µM | 2.85 µM | 7.87 µM | 1.87 µM | > 100 µM | 0.561 µM | 3.58 µM | 2.19 µM | > 45 µM | 14.5 µM | 63.4 µM | 4.46 µM | > 31.5 µM
Clc1ccc(CN2COc3c(cc(Cl)c4cccnc34)C2)cc1 | – | 6.8 µM | – | 24.8 µM | – | 6.84 µM | – | 4.11 µM | – | 3.82 µM | – | 8 µM | – | 9.19 µM | – | 24.7 µM | – | 3.87 µM | – | 9.13 µM
CCSc1nc(COC(=O)NC)c(COC(=O)NC)n1C | – | > 100 µM | – | > 82 µM | – | > 100 µM | – | 51.2 µM | – | > 83 µM | – | > 93.1 µM | – | > 100 µM | – | > 100 µM | – | > 100 µM | – | > 100 µM
CC(C)[C@@H](COC(C)(C)C)N=CN1CCc2c([nH]c3ccccc23)C1 | – | > 100 µM | – | > 100 µM | – | > 100 µM | – | > 100 µM | – | > 100 µM | – | > 100 µM | – | > 100 µM | – | > 100 µM | – | > 100 µM | – | –
Cn1cc(-c2ccc(CNc3cc(-c4cnc5cc(OCCCN6CCCC6)ccn45)ncn3)cc2)cn1 | – | – | 16.2 µM | 31.9 µM | 1.9 µM | 4.13 µM | 13.2 µM | 29.2 µM | 1.74 µM | 3.2 µM | 2.05 µM | 4.27 µM | 1.77 µM | 3.37 µM | 1.33 µM | 2.72 µM | 15.5 µM | 30.4 µM | 2.23 µM | 5.5 µM
